According to PubChem BioAssay (NCI):
Where “and” joins values, the source holds several entries; their conditions need not be identical. Equal values may be shown once.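 96-well plates; 48 h exposure; 5 concentrations. Endpoints by linear interpolation between flanking doses. Not reached: highest tested concentration assigned. GI50 = concentration required for 50% inhibition of growth. At the TGI there is no net growth.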

Experiments:
Assay in all cases: DTP human tumour cell line panel, 48 h
[1] = system: PC-3 prostate
[2] = system: DU-145 prostate
[3] = system: SNB-75 CNS
[4] = system: SF-539 CNS
[5] = system: HOP-92 NSCLC
[6] = system: A498 renal
[7] = system: SNB-19 CNS
[8] = system: BT-549 breast
[9] = system: MCF7 breast
[10] = system: NCI-H226 lung

SMILES: CCCC1c2c(ccc3ccccc23)Oc2ccc3ccccc3c21
- TGI [1]: > 100 µM
- TGI [2]: > 100 µM
- TGI [3]: > 100 µM
- TGI [4]: > 100 µM
- TGI [5]: > 100 µM
- TGI [6]: 78 µM
- TGI [7]: > 100 µM
- TGI [8]: > 100 µM
- TGI [9]: 35.6 µM
- TGI [10]: > 100 µM

SMILES: COc1cc(Nc2nc3cc(N)cc(N)c3nc2-c2ccccc2)cc(OC)c1
- GI50 [1]: 1.96 µM
- TGI [1]: 10.9 µM
- GI50 [2]: 22.7 µM
- TGI [2]: > 100 µM
- GI50 [3]: 3.7 µM
- TGI [3]: 44.9 µM
- GI50 [6]: 4.91 µM
- TGI [6]: 22.4 µM
- GI50 [7]: 58.3 µM
- TGI [7]: > 100 µM
- GI50 [8]: 4.69 µM
- TGI [8]: 31.8 µM
- GI50 [9]: 7.86 µM
- TGI [9]: 27.1 µM
- GI50 [10]: 2.9 µM
- TGI [10]: 32.9 µM

SMILES: CCOP(=O)(OCC)C(NC(c1ccccc1)c1ccccc1)c1ccccc1 (configuration not stated)
- GI50 [1]: 12 µM
- TGI [1]: 27.1 µM
- GI50 [2]: 15 µM
- TGI [2]: 30 µM
- GI50 [3]: 21.7 µM
- TGI [3]: 45.3 µM
- GI50 [4]: 17.2 µM
- TGI [4]: 33.1 µM
- GI50 [5]: 15.6 µM
- TGI [5]: 31.9 µM
- GI50 [7]: 48.1 µM
- TGI [7]: > 100 µM
- GI50 [8]: 15.4 µM
- TGI [8]: 34.6 µM
- GI50 [9]: 15.9 µM
- TGI [9]: 31.9 µM

SMILES: c1ccc(Cc2nc3ccc(Nc4ncnc5ccccc45)cc3[nH]2)cc1
- GI50 [1]: > 25 µM
- TGI [1]: > 25 µM
- GI50 [2]: > 25 µM
- TGI [2]: > 25 µM
- GI50 [3]: > 25 µM
- TGI [3]: > 25 µM
- GI50 [4]: > 25 µM
- TGI [4]: > 25 µM
- GI50 [5]: 9.26 µM
- TGI [5]: > 25 µM
- GI50 [6]: 9.41 µM
- TGI [6]: > 25 µM
- GI50 [7]: > 25 µM
- TGI [7]: > 25 µM
- GI50 [8]: > 25 µM
- TGI [8]: > 25 µM
- GI50 [9]: > 25 µM
- TGI [9]: > 25 µM
- GI50 [10]: > 25 µM
- TGI [10]: > 25 µM

SMILES: CSc1nc2c(c(=O)[nH]1)N=C1c3ccccc3C(=O)C1C(c1ccc(F)cc1)N2 (configuration not stated)
- GI50 [1]: 7.72 µM
- TGI [1]: 95.2 µM
- GI50 [2]: 16.2 µM
- TGI [2]: 42.2 µM
- GI50 [3]: 1.46 µM
- TGI [3]: 14.9 µM
- GI50 [4]: 8.9 µM
- TGI [4]: 29.4 µM
- GI50 [5]: 9.52 µM
- TGI [5]: 48.8 µM
- GI50 [6]: 4.88 µM
- TGI [6]: 20.5 µM
- GI50 [7]: 15.9 µM
- TGI [7]: 66 µM
- GI50 [8]: 8.5 µM
- TGI [8]: 41.2 µM
- GI50 [9]: 5.18 µM
- TGI [9]: 62.4 µM
- GI50 [10]: 15.3 µM
- TGI [10]: 45.6 µM

SMILES: CC(=O)O[C@H]1C(=O)[C@@]2(C)C(C(OC(=O)c3ccccc3)[C@]3(O)CC(OC(=O)[C@H](OC(=O)CCC(=O)O)C(NC(=O)c4ccccc4)c4ccccc4)C(C)=C1C3(C)C)C1(OC(C)=O)COC1C[C@@H]2OC(=O)CCC(=O)O (some centres not stated)
- TGI [1]: > 100 µM
- TGI [3]: > 26.8 µM
- TGI [4]: 2.72 µM
- TGI [5]: > 100 µM
- GI50 [6]: 0.0997 µM
- TGI [6]: 5.65 µM
- TGI [7]: > 100 µM
- TGI [9]: > 100 µM
- TGI [10]: 81.1 µM and > 100 µM

SMILES: Oc1ccc(/C=N\Nc2ccccn2)c(O)c1
- GI50 [1]: 4.56 µM
- TGI [1]: > 100 µM
- GI50 [2]: 0.422 µM
- TGI [2]: 4.32 µM
- GI50 [3]: 1.46 µM
- TGI [3]: 6.62 µM
- GI50 [5]: 5.02 µM
- TGI [5]: > 100 µM
- GI50 [6]: 1.87 µM
- TGI [6]: 7.17 µM
- GI50 [7]: 2.97 µM
- TGI [7]: > 100 µM
- GI50 [8]: 4.87 µM
- TGI [8]: > 100 µM
- GI50 [9]: 1.76 µM
- TGI [9]: 11 µM
- GI50 [10]: 2.25 µM
- TGI [10]: 7.03 µM

SMILES: COP(=O)(OC)C(NC(c1ccccc1)c1ccccc1)c1ccc2c(c1)OCO2 (configuration not stated)
- GI50 [1]: 16.4 µM
- TGI [1]: 66.3 µM
- GI50 [2]: 26.6 µM
- TGI [2]: 60.5 µM
- GI50 [3]: 30.5 µM
- TGI [3]: 67.2 µM
- GI50 [4]: 20.2 µM
- TGI [4]: 36 µM
- GI50 [5]: 12 µM
- TGI [5]: 26.3 µM
- GI50 [6]: 22.8 µM
- TGI [6]: 44.2 µM
- GI50 [7]: 23.4 µM
- TGI [7]: 47.4 µM
- GI50 [8]: 20.6 µM
- TGI [8]: 38.8 µM
- GI50 [9]: 26 µM
- TGI [9]: 79 µM
- GI50 [10]: 30.7 µM
- TGI [10]: 66.6 µM

SMILES: N#CC(=S)Nc1cccc(Cl)c1
- TGI [1]: > 100 µM
- TGI [2]: > 100 µM
- TGI [3]: 75.9 µM
- TGI [4]: 93.7 µM
- TGI [5]: > 100 µM
- TGI [6]: > 100 µM
- TGI [7]: > 100 µM
- TGI [8]: > 100 µM
- TGI [9]: > 100 µM
- TGI [10]: > 100 µM

SMILES: Cc1ccc(C(CN(C)C)C(=O)c2ccccc2)cc1 (configuration not stated)
- GI50 [1]: 1.84 µM
- TGI [1]: 4.36 µM
- GI50 [2]: 1.93 µM
- TGI [2]: 5.12 µM
- GI50 [3]: 2.58 µM
- TGI [3]: 14.8 µM
- GI50 [4]: 3.09 µM
- TGI [4]: 10.7 µM
- GI50 [5]: 2.07 µM
- TGI [5]: 5.38 µM
- GI50 [6]: 13.5 µM
- TGI [6]: 28.6 µM
- GI50 [7]: 10.4 µM
- TGI [7]: 24.3 µM
- GI50 [8]: 1.7 µM
- TGI [8]: 3.75 µM
- GI50 [10]: 2.97 µM
- TGI [10]: 20.9 µM

SMILES: OCCCCC#Cc1ccccc1C#Cc1ccccc1
- GI50 [1]: 14.1 µM
- TGI [1]: 27.1 µM
- GI50 [2]: 5.22 µM
- TGI [2]: 20.2 µM
- GI50 [3]: 16 µM
- TGI [3]: 42.1 µM
- GI50 [4]: 10.8 µM
- TGI [4]: 24.1 µM
- GI50 [5]: 9.55 µM
- TGI [5]: 22.6 µM
- GI50 [7]: 0.153 µM
- TGI [7]: 37.2 µM
- GI50 [8]: 11.6 µM
- TGI [8]: 25.9 µM
- GI50 [9]: 21 µM
- TGI [9]: 48.1 µM
- GI50 [10]: 16.2 µM
- TGI [10]: 35.3 µM

SMILES: O=C(O)c1ccc2c(c1)Cc1cc([N+](=O)[O-])ccc1-2
- TGI [2]: > 100 µM
- TGI [3]: > 100 µM
- TGI [4]: > 100 µM
- TGI [5]: > 100 µM
- TGI [6]: > 100 µM
- TGI [7]: > 100 µM
- TGI [8]: > 100 µM
- TGI [9]: > 100 µM
- TGI [10]: > 100 µM

SMILES: CCCC[C@H]1C(=O)O[C@H](C)[C@H](NC(=O)c2cccc(NC=O)c2O)C(=O)O[C@@H](C)[C@@H]1OC(=O)CC(C)C
- TGI [1]: 32.9 µM
- TGI [2]: 40.7 µM
- TGI [3]: 59.9 µM
- TGI [4]: 31.8 µM
- TGI [5]: 29.9 µM
- TGI [6]: 30 µM
- TGI [7]: 63.1 µM
- TGI [8]: 36 µM
- TGI [9]: 25.8 µM
- TGI [10]: 23.8 µM

SMILES: COc1cc2oc(=O)ccc2cc1C1OC(=O)C2OC21C (configuration not stated)
- TGI [1]: > 100 µM
- TGI [2]: > 100 µM
- TGI [3]: > 100 µM
- TGI [4]: > 100 µM
- TGI [5]: > 100 µM
- TGI [7]: > 100 µM
- TGI [9]: > 100 µM
- TGI [10]: > 100 µM

SMILES: CC(C)(C)N1CCC1C(N)=O (configuration not stated)
- GI50 [1]: > 100 µM
- TGI [1]: > 100 µM
- GI50 [2]: > 100 µM
- TGI [2]: > 100 µM
- GI50 [3]: > 100 µM
- TGI [3]: > 100 µM
- GI50 [4]: > 100 µM
- TGI [4]: > 100 µM
- GI50 [5]: > 100 µM
- TGI [5]: > 100 µM
- GI50 [6]: > 100 µM
- TGI [6]: > 100 µM
- GI50 [7]: > 100 µM
- TGI [7]: > 100 µM
- GI50 [8]: > 100 µM
- TGI [8]: > 100 µM
- GI50 [9]: > 100 µM
- TGI [9]: > 100 µM
- GI50 [10]: > 100 µM
- TGI [10]: > 100 µM
